Results: patent US20220220472A1, “TARGETED THERAPY” (The Regents of the University of Michigan, priority 2019, published 2022)

Key:
[1] = tested on: HCT116 cells; test: Clonogenic survival of HCT116 cells with Dox-inducible dCas9-Fok1-GFP and gRNA pairs; type: cell-based; conditions: Nu7441 200 nM, 12 days, no gRNA
Procedure: Cells were plated and treated with different concentrations of Dox for 12 days. Cells were then fixed and stained, colonies were counted, and colony numbers were reported as a percentage of control cells not treated with Dox. […] Cells were plated and treated with different concentrations of Dox for 12 days. Cells were then fixed and stained and colonies counted and expressed as a percentage of control cells not treated with Dox. In FIG. 5A and FIG. 5B, the gRNA pairs target two CRJs on chromosome 3 (3ab and 3cd), one on chromosome 5 (5ab), and one on the X chromosome (xab).
During the development of embodiments of the technology provided herein, experiments were conducted to evaluate use of a dCas9-Fok1 fusion protein and to produce a dCas9-Fok1 fusion protein further comprising a GFP domain to provide a tool to detect expression in cells. Furthermore, the dCas9-Fok1-GFP fusion and the gRNA genes were placed under the regulation of a tet-inducible promoter for performing experiments to establish the cells in culture or as xenografts and then induce expression by addition of doxycycline (Dox). […]
HCT116 cells with stable expression of dCas9-Fok1-GFP, 3ab3cd/Fok1-dcas9-GFP, 5ab3cd/Fok1-GFP, and 3abxab/dCas9-GFP were maintained in DMEM containing 10% FBS. […] Clonogenic survival colonies with 50 cells or more were counted.

[2] = tested on: UMUC-3 bladder cancer cells; test: Clonogenic survival assay in UMUC-3 bladder cancer cells; type: cell-based, human; conditions: doxycycline induction plus Nu7441
Description: FIG. 6C is a series of bar plots showing data collected from an […] clonogenic survival assay in the UMUC-3 bladder cells shown schematically in FIG. 6B. […] Further, treatments with the DNA-PK inhibitor Nu7441 improved the toxicity of the CRJ-targeting gRNAs (bottom row). The data are expressed as the mean and standard deviation of three biological replicates. Numbers (3a & X; 7 & 2; 7 & 4; 19 & 2; and 19 & 4) indicate the combinations of gRNA used for the experiment.
First, CRJs were identified in bladder cancer cells (see, e.g., FIG. 6A). Using sequence information from the CRJs identified in bladder cancer cells, gRNA were designed and UMUC-3 (ATCC Accession CRL-1749) cell lines were produced comprising doxycycline-inducible expression of Fok1-dCas9 and the CRJ-targeting gRNAs. gRNA sequences are provided in Table 2.
Six UMUC-3 bladder cancer sublines were generated—Two control cell lines were produced, one expressing no gRNAs and one expressing 2 pairs of non-targeting gRNAs; four experimental cell lines were produced expressing Fok1-dCas9-GFP and two pairs of CRJ-targeting gRNAs under the regulation of doxycycline (see, e.g., FIG. 6B). CRJ-specific DSBs were induced in the cells (e.g., using doxycycline) and toxicity was monitored to determine if interfering with DSB repair leads to increased killing of bladder cancer cells (see, e.g., FIG. 6C, top row). […]

[3] = tested on: HCT116 xenografts; test: HCT116 xenograft tumor growth in mice; type: in vivo; conditions: water with Dox and Nu7441
Procedure: In these experiments, HCT116 cells are injected into mice and each group is split into three treatment groups that receive ether regular water, water with Dox, or water with Dox and Nu7441.
Experiments are conducted in which three of the HCT116 cell lines with dox-inducible expression of dCas9-Fok1-GFP with and without CRJ-targeting gRNAs are used to form xenografts in the flank of mice. In these experiments, one million HCT116 cells in a 100 μl Matrigel suspension are injected s.c. into the hind leg of the mice (a total of 54 NOD/SCID or athymic BALB/C, 10-12 weeks old). When tumors reach sizes of 50-150 mm^3, each group is split into three groups (see, e.g., FIG. 2) where they receive ether regular water, water with Dox, or water with Dox and Nu7441. Tumor measurements are taken daily and mouse weights are recorded 3 times weekly. As the control tumors reach the predetermined tumor size limit, animals are euthanized. At this time, the tumors are removed, weighed, and documented (e.g., using digital imaging) and used for downstream analyses. Downstream analyses include measuring expression of dCas9-Fok1-GFP (green fluorescence) and γH2AX ChIP-PCR with primers for sequences near the CRJ and sequences far away as a control.

[4] = tested on: UMUC-3 orthotopic tumors; test: UMUC-3 orthotopic xenograft tumor growth in NOD-scid mice; type: in vivo; conditions: UMUC-3 in NODscid mice; doxycycline plus Nu7441
Procedure: FIG. 7 is a schematic drawing showing an in vivo experiment comparing tumor growth between UMUC-3 cells expressing non-targeting gRNAs (left) and UMUC-3 cells expressing CRJ-targeting gRNAs (right). These cell lines are engineered to express luciferase for bioluminescent monitoring. Each mouse group represents 10 NODscid mice. […] Accordingly, further experiments are conducted to grow these cell lines as orthotopic xenografts in NOD-scid mice and to monitor tumor growth (e.g., using bioluminescence) in vivo as the CRISPR reagents are induced by doxycycline (e.g., provided in food and/or water). UMUC-3 cells are grown as orthotopic tumors in NOD-scid mice, animals are given doxycycline to induce Fok1-dCas9 and the two pairs of gRNAs in the cancer cells, and the effects on tumor growth are assessed by bioluminescence. […] The other cell line expresses CRJ-targeting gRNAs following doxycycline exposure. Experiments are conducted with or without a DNA-PK inhibitor (e.g., Nu7441) and with and without doxycycline in the drinking water and/or in the food. 10 animals are used per group with 8 groups for a total of 80 animals (FIG. 7).

O=c1cc(N2CCOCC2)oc2c(-c3cccc4c3sc3ccccc34)cccc12 [Nu7441]
effect of Nu7441 on clonogenicity of cells expressing dCas9-Fok1-GFP alone [1]: did not affect clonogenicity
toxicity / survival with DNA-PK inhibitor Nu7441 [2]: augmented this effect
suppression of tumor growth with Nu7441 [3]: Suppression of tumor growth is augmented
tumor growth inhibition with Nu7441 [4]: augments tumor growth inhibition
